According to EPA's ToxRefDB 2:

Assays:
rat [1] = conditions: Subchronic oral toxicity in rodents, sprague dawley, Gavage/Intubation, dose end: 90 day, group: systemic, systemic / clinical chemistry / calcium / calcium + systemic / clinical chemistry / cholesterol / cholesterol + systemic / clinical …
rat [2] = conditions: Prenatal developmental toxicity study, sprague dawley, Oral, Gavage/Intubation, dose end: 18 GD
rat [3] = conditions: Subchronic oral toxicity in rodents, sprague dawley, Feed, dose end: 92 day, group: systemic
rabbit [4] = conditions: Prenatal developmental toxicity study, new zealand white, Oral, Gavage/Intubation, dose end: 19 GD, group: maternal
rat [5] = conditions: Sub-acute repeat dose toxicity; Oral; Gavage/Intubation; dose end: 19 day; group: systemic; systemic / in life observation / body weight / body weight + systemic / in life observation / clinical signs / salivation
rat [6] = conditions: Sub-acute repeat dose toxicity; Oral; Gavage/Intubation; dose end: 14 day; group: systemic; systemic / in life observation / body weight / body weight gain + systemic / in life observation / clinical signs / reduced activity + …
rat [7] = conditions: Fertility (Segment I); sprague dawley; Oral; Gavage/Intubation; dose end: 1 generation; group: parental; systemic / in life observation / body weight / body weight + systemic / in life observation / clinical signs / salivation + systemic / in …
mouse [8] = conditions: Subchronic oral toxicity in rodents, Feed, dose end: 92 day, group: systemic
rat [9] = conditions: Sub-acute repeat dose toxicity; Oral; Gavage/Intubation; dose end: 38 day; group: systemic; systemic / clinical chemistry / albumin / albumin + systemic / clinical chemistry / creatinine / creatinine + systemic / clinical chemistry…
dog [10] = conditions: Sub-acute repeat dose toxicity, beagle, Oral, Gavage/Intubation, dose end: 8 day, group: systemic
rabbit [11] = conditions: Sub-acute repeat dose toxicity; new zealand white; Oral; Gavage/Intubation; dose end: 5 day; group: systemic; systemic / in life observation / food consumption / food consumption
rat [12] = conditions: Peri- and post-natal toxicity study (Segment III), Oral, Gavage/Intubation, dose end: 1 generation
dog [13] = conditions: Subchronic oral toxicity in nonrodent, beagle, Gavage/Intubation, dose end: 98 day, group: systemic
rat [14] = conditions: Sub-acute repeat dose toxicity, sprague dawley, Oral, Feed, dose end: 15 day, group: systemic
mouse [15] = conditions: Sub-acute repeat dose toxicity, Oral, Feed, dose end: 15 day, group: systemic
rat [16] = conditions: Fertility (Segment I); sprague dawley; Oral; Gavage/Intubation; dose end: 1 generation; group: parental; systemic / in life observation / body weight / body weight + systemic / in life observation / clinical signs / salivation + systemic / in …; remark: listed apart in the source
rabbit [17] = conditions: Sub-acute repeat dose toxicity, new zealand white, Oral, Gavage/Intubation, dose end: 13 day
mouse [18] = conditions: Carcinogenicity, cd1, Oral, Feed, dose end: 19 month, group: systemic
rat [19] = conditions: Combined chronic toxicity/carcinogenicity; other; Oral; Feed; dose end: 102 week; group: systemic; systemic / pathology microscopic / kidney / degeneration + systemic / pathology microscopic / kidney / dilatation + systemic / pathology …
dog [20] = conditions: Chronic toxicity, beagle, Oral, Feed, dose end: 52 week, group: systemic
rat [21] = conditions: Subchronic oral toxicity in rodents, sprague dawley, Feed, dose end: 13 week, group: systemic, systemic / clinical chemistry / urea nitrogen / urea nitrogen + systemic / clinical chemistry / creatinine / creatinine + systemic / …
dog [22] = conditions: Subchronic oral toxicity in nonrodent, beagle, Feed, dose end: 90 day, group: systemic
rat [23] = conditions: Subchronic oral toxicity in rodents, sprague dawley, Feed, dose end: 90 day, group: systemic
[24] = group: developmental, developmental / developmental malformation / bone / [other] + systemic / in life observation / body weight / fetal weight
[25] = group: maternal, systemic / in life observation / body weight / body weight + systemic / in life observation / clinical signs / salivation + systemic / in …
[26] = systemic / in life observation / body weight / body weight
[27] = systemic / in life observation / body weight / body weight + systemic / in life observation / clinical signs / lacrimation or red-colored …
[28] = systemic / in life observation / food consumption / food consumption
[29] = systemic / in life observation / food consumption / food consumption + reproductive / reproductive performance / aborted / aborted + …
[30] = systemic / clinical chemistry / cholesterol / cholesterol + systemic / in life observation / body weight / body weight + systemic / clinical…
[31] = systemic / hematology / lymphocyte / lymphocyte
[32] = systemic / hematology / leukocyte (wbc) count differential / leukocyte (wbc) + systemic / in life observation / clinical signs / abnormal …
[33] = systemic / in life observation / clinical signs / abnormal feces + systemic / in life observation / clinical signs / salivation
[34] = group: developmental, developmental / developmental landmark / eye opening / eye opening
[35] = group: parental, systemic / in life observation / body weight / body weight + systemic / in life observation / body weight / body weight gain + systemic / in…
[36] = systemic / in life observation / clinical signs / salivation
[37] = systemic / in life observation / clinical signs / salivation + systemic / in life observation / clinical signs / emesis
[38] = systemic / in life observation / body weight / body weight + systemic / in life observation / clinical signs / alopecia + systemic / in life…
[39] = systemic / in life observation / body weight / body weight + systemic / in life observation / clinical signs / hunched posture + systemic / …
[40] = group: maternal, reproductive / reproductive performance / aborted / aborted
[41] = group: systemic, systemic / in life observation / body weight / body weight gain + systemic / in life observation / food consumption / food consumption
[42] = group: systemic, systemic / in life observation / body weight / body weight gain + systemic / in life observation / food consumption / food consumption + …
[43] = systemic / in life observation / body weight / body weight gain + systemic / clinical chemistry / alkaline phosphatase (alp/alk) / alkaline …
[44] = systemic / organ weight / ovary / absolute + systemic / organ weight / ovary / relative to body weight + systemic / organ weight / ovary / …

CS(=O)(=O)O.Cc1nccn1-c1ccc(Sc2cccc(C3(C(N)=O)CCOCC3)c2)cc1 showed an LEL (rat [1]) of 20 mg/kg/day, an LOAEL (rat [1]) of over 150 mg/kg/day and an NEL (rat [1]) of 5 mg/kg/day. The NOAEL (rat [1]) was at least 150 mg/kg/day, the LEL (rat [2]; [24]) was 50 mg/kg/day and the LOAEL (rat [2]; [24]) was over 50 mg/kg/day. It also gave an NOAEL (rat [2]; [24]) of at least 50 mg/kg/day, an LOAEL (rat [2]; [25]) of over 50 mg/kg/day and an NEL (rat [2]; [25]) of 5 mg/kg/day. It also gave an NOAEL (rat [2]; [25]) of at least 50 mg/kg/day, an LEL (rat [2]; group: maternal, systemic / in life observation / body weight / body weight + systemic / in life observation / food consumption / food consumption) of 15 mg/kg/day and an LEL (rat [3]; [26]) of 10 mg/kg/day. The NEL (rat [3]; [26]) was under 10 mg/kg/day, the LOAEL (rat [3]; [27]) was over 100 mg/kg/day and the NOAEL (rat [3]; [27]) was at least 100 mg/kg/day. It also gave an LEL (rabbit [4]; [28]) of 2 mg/kg/day, an NEL (rabbit [4]; [28]) of under 2 mg/kg/day and an LOAEL (rabbit [4]; [29]) of over 25 mg/kg/day. For the same molecule, the NOAEL (rabbit [4]; [29]) was at least 25 mg/kg/day, the LEL (rat [5]) was 100 mg/kg/day and the LOAEL (rat [5]) was over 100 mg/kg/day. For the same molecule, the NEL (rat [5]) was under 100 mg/kg/day, the NOAEL (rat [5]) was at least 100 mg/kg/day and the LEL (rat [6]) was 200 mg/kg/day. For the same molecule, the LOAEL (rat [6]) was over 200 mg/kg/day, the NEL (rat [6]) was under 200 mg/kg/day and the NOAEL (rat [6]) was at least 200 mg/kg/day. The LEL (rat [7]) was 50 mg/kg/day, the LOAEL (rat [7]) was over 50 mg/kg/day and the NEL (rat [7]) was 15 mg/kg/day. For the same molecule, the NOAEL (rat [7]) was at least 50 mg/kg/day, the LOAEL (mouse [8]; [30]) was over 600 mg/kg/day and the NOAEL (mouse [8]; [30]) was at least 600 mg/kg/day. It also gave an LEL (mouse [8]; [31]) of 30 mg/kg/day, an NEL (mouse [8]; [31]) of under 30 mg/kg/day and an LEL (rat [9]) of 250 mg/kg/day. For the same molecule, the LOAEL (rat [9]) was over 250 mg/kg/day, the NEL (rat [9]) was under 250 mg/kg/day and the NOAEL (rat [9]) was at least 250 mg/kg/day. It also gave an LOAEL (dog [10]; [32]) of over 60 mg/kg/day, an NOAEL (dog [10]; [32]) of at least 60 mg/kg/day and an LEL (dog [10]; [33]) of 3 mg/kg/day. For the same molecule, the NEL (dog [10]; [33]) was under 3 mg/kg/day, the LEL (rabbit [11]) was 10 mg/kg/day and the LOAEL (rabbit [11]) was over 100 mg/kg/day. It also gave an NEL (rabbit [11]) of under 10 mg/kg/day, an NOAEL (rabbit [11]) of at least 100 mg/kg/day and an LEL (rat [12]; [34]) of 50 mg/kg/day. It also gave an LOAEL (rat [12]; [34]) of over 50 mg/kg/day, an NOAEL (rat [12]; [34]) of at least 50 mg/kg/day and an LEL (rat [12]; [35]) of 15 mg/kg/day. The LOAEL (rat [12]; [35]) was over 50 mg/kg/day, the NEL (rat [12]; [35]) was 5 mg/kg/day and the NOAEL (rat [12]; [35]) was at least 50 mg/kg/day. It also gave an LEL (dog [13]; [36]) of 3 mg/kg/day, an NEL (dog [13]; [36]) of under 3 mg/kg/day and an LOAEL (dog [13]; [37]) of over 30 mg/kg/day. For the same molecule, the NOAEL (dog [13]; [37]) was at least 30 mg/kg/day, the LOAEL (rat [14]; [38]) was over 600 mg/kg/day and the NEL (rat [14]; [38]) was 30 mg/kg/day. The NOAEL (rat [14]; [38]) was at least 600 mg/kg/day, the LEL (rat [14]; systemic / in life observation / body weight / body weight + systemic / in life observation / food consumption / food consumption) was 100 mg/kg/day and the LOAEL (mouse [15]; [39]) was over 1200 mg/kg/day. It also gave an NOAEL (mouse [15]; [39]) of at least 1200 mg/kg/day, an LEL (mouse [15]; systemic / in life observation / body weight / body weight + systemic / in life observation / food consumption / food consumption + systemic…) of 600 mg/kg/day and an LEL (rat [16]) of 50 mg/kg/day. It also gave an LOAEL (rat [16]) of over 50 mg/kg/day, an NEL (rat [16]) of 15 mg/kg/day and an NOAEL (rat [16]) of at least 50 mg/kg/day. For the same molecule, the LEL (rabbit [17]; [40]) was 50 mg/kg/day, the LOAEL (rabbit [17]; [40]) was over 200 mg/kg/day and the NEL (rabbit [17]; [40]) was 10 mg/kg/day. It also gave an NOAEL (rabbit [17]; [40]) of at least 200 mg/kg/day, an LEL (rabbit [17]; [41]) of 10 mg/kg/day and an NEL (rabbit [17]; [41]) of under 10 mg/kg/day. For the same molecule, the LOAEL (rabbit [17]; [42]) was over 200 mg/kg/day and the NOAEL (rabbit [17]; [42]) was at least 200 mg/kg/day.
Work on CC1=C(C(=O)Nc2ccccc2)SCCO1 [Carboxin] yielded an LOAEL (mouse [18]; systemic / in life observation / mortality / mortality) of 451 mg/kg/day, an NOAEL (mouse [18]; systemic / in life observation / mortality / mortality + systemic / pathology microscopic / liver / hypertrophy) of 9 mg/kg/day and an LEL (mouse [18]; systemic / pathology microscopic / liver / hypertrophy) of 385 mg/kg/day. For the same molecule, the NEL (mouse [18]; systemic / pathology microscopic / liver / hypertrophy + systemic / pathology microscopic / lung / adenoma) was 8 mg/kg/day, the LEL (rat [19]) was 9 mg/kg/day and the LOAEL (rat [19]) was 9 mg/kg/day. The NEL (rat [19]) was 0.8 mg/kg/day, the NOAEL (rat [19]) was 0.8 mg/kg/day and the LOAEL (dog [20]; systemic / in life observation / body weight / body weight gain) was 15 mg/kg/day. For the same molecule, the NEL (dog [20]; [43]) was 1.3 mg/kg/day, the NOAEL (dog [20]; [43]) was 1.3 mg/kg/day and the LEL (dog [20]; systemic / in life observation / body weight / body weight gain + systemic / hematology / mean corpuscular (cell) volume (mcv) / mean …) was 15 mg/kg/day. It also gave an LEL (rat [21]) of 10 mg/kg/day, an LOAEL (rat [21]) of 10 mg/kg/day and an NEL (rat [21]) of under 10 mg/kg/day. The NOAEL (rat [21]) was under 10 mg/kg/day, the LOAEL (dog [22]; [44]) was 17.7 mg/kg/day and the NEL (dog [22]; [44]) was 5.9 mg/kg/day. For the same molecule, the NOAEL (dog [22]; [44]) was 9 mg/kg/day, the LEL (dog [22]; systemic / pathology microscopic / parathyroid gland / cyst + systemic / pathology microscopic / pituitary gland / cyst) was 9 mg/kg/day and the LOAEL (rat [23]; systemic / pathology microscopic / kidney / nephropathy) was 10.5 mg/kg/day. It also gave an NOAEL (rat [23]; systemic / pathology microscopic / kidney / nephropathy + systemic / in life observation / clinical signs / defecation) of 5.5 mg/kg/day.
